# From patent US20150125889A1, “IN VITRO DETECTION OF MICROORGANISMS WITH AZOREDUCTASE ACTIVITY” (BIOMÉRIEUX, priority 2012, published 2015)
# Test: Test of reduction of Methyl red by food matrices (Example 3)
# Set-up: key to Increase in fluorescence over 24 hours: The symbol “−” means that there is no growth or increase in fluorescence of the medium indicating a reduction of the substrate over 24 hours
# Conditions: for Increase in fluorescence over 24 hours: 35 mg/l of Methyl red in TSB, 250 nm/395 nm, 35° C.
# Protocol: Nine food matrices, some of which have high enzymatic activity (for which the use of Tempo®TVC is not recommended), listed in Table VIII, are tested, in a microtitration plate, in the presence of 35 mg/l of Methyl red in TSB medium to which is added an antimicrobial cocktail combining 200 mg/l of chloramphenicol and 6 mg/l of gentamycin to inhibit the growth of bacteria and fungi. The matrices are tested at different concentrations: 1/400, 1/4000 and […]. To do this, 10 g of matrices are weighed out and dispersed by stomaching in 90 ml of Tryptone-salt solution, which corresponds to a 1/10 dilution, from which the test dilutions are made. The reduction of the substrate and the growth of the microorganisms are monitored using an Infinite® M200 Tecan microplate reader at 35° C. over 24 hours. The reduction of the Methyl red is monitored by reading the fluorescence with the wavelength pair 250 nm/395 nm. The potential growth of microorganisms is monitored by reading the absorbance at 660 nm. The symbol “−” means that there is no growth or increase in fluorescence of the medium indicating a reduction of the substrate over 24 hours.
compound,measurement,setting,value
CN(C)c1ccc(/N=N/c2ccccc2C(=O)O)cc1 [Methyl red],Increase in fluorescence over 24 hours,Avocado + ATB,−
same,Increase in fluorescence over 24 hours,Brie de Meaux AOC cheese + ATB,−
same,Increase in fluorescence over 24 hours,Fresh tagliatelle + ATB,−
same,Increase in fluorescence over 24 hours,Melon + ATB,−
same,Increase in fluorescence over 24 hours,Microfiltered whole milk + ATB,−
same,Increase in fluorescence over 24 hours,Mussels + ATB,−
same,Increase in fluorescence over 24 hours,Pink shrimps + ATB,−
same,Increase in fluorescence over 24 hours,Raw calf liver + ATB,−
same,Increase in fluorescence over 24 hours,Salami + ATB,−
same,reduction of the Methyl red by the food matrix (text on Table IX),"nine food matrices with antimicrobial cocktail, no growth of microorganisms",no reduction
